Calls of active or inactive are those of the source. The rule behind the calls is not given here.
What was measured:
[1] = test system: Human immunodeficiency virus 1; assay: Antiviral activity against HIV1; type: functional, organism-based
[2] = test system: MT2; assay: Cytotoxicity against MT2 cells by XTT assay; type: functional, cell-based; conditions: Homo sapiens
[3] = Therapeutic index, ratio of IC50 for MT2 cells to EC50 for HIV1; type: cell-based; conditions: human, read-out: Ratio IC50/EC50

Row | SMILES | Activity [1] | IC50 [2] | EC50 [1] | selectivity ratio [3]
1 | C=C(C)[C@@H]1CC[C@]2(C(=O)O)CC[C@]3(C)[C@H](CC[C@@H]4[C@@]5(C)CC[C@H](OC(=O)C[C@H](C)CO)C(C)(C)[C@@H]5CC[C@]43C)[C@@H]12 | inactive | > 44.9 µM | – | –
2 | C=C(C)[C@@H]1CC[C@]2(C(=O)O)CC[C@]3(C)[C@H](CC[C@@H]4[C@@]5(C)CC[C@H](OC(=O)CC(C)(C)C(=O)O)C(C)(C)[C@@H]5CC[C@]43C)[C@@H]12 [BEVIRIMAT] | – | > 42.8 µM | 0.0013 µM | 30600
3 | C=C(C)[C@@H]1CC[C@]2(C(=O)O)CC[C@]3(C)[C@H](CC[C@@H]4[C@@]5(C)CC[C@H](OC(=O)[C@H](C)CC(=O)O)C(C)(C)[C@@H]5CC[C@]43C)[C@@H]12 | inactive | > 43.8 µM | – | –
4 | C=C(C)[C@@H]1CC[C@]2(C(=O)O)CC[C@]3(C)[C@H](CC[C@@H]4[C@@]5(C)CC[C@H](OC(=O)C[C@H](C)C(=O)O)C(C)(C)[C@@H]5CC[C@]43C)[C@@H]12 | – | 32.8 µM | 0.0087 µM | 6270
5 | C=C(C)[C@@H]1CC[C@]2(C(=O)O)CC[C@]3(C)[C@H](CC[C@@H]4[C@@]5(C)CC[C@H](OC(=O)CC(C)C(=O)O)C(C)(C)[C@@H]5CC[C@]43C)[C@@H]12 (stereo partly specified) | – | > 44.9 µM | 0.016 µM | 5320
6 | C=C(C)[C@@H]1CC[C@]2(C(=O)O)CC[C@]3(C)[C@H](CC[C@@H]4[C@@]5(C)CC[C@H](OC(=O)C[C@@H](C)C(=O)O)C(C)(C)[C@@H]5CC[C@]43C)[C@@H]12 | – | > 43.8 µM | 0.12 µM | 961
7 | C=C(C)[C@@H]1CC[C@]2(C(=O)O)CC[C@]3(C)[C@H](CC[C@@H]4[C@@]5(C)CC[C@H](OC(=O)[C@@H](C)CC(=O)O)C(C)(C)[C@@H]5CC[C@]43C)[C@@H]12 | – | > 43.8 µM | 0.44 µM | 100
8 | Cc1cn([C@H]2C[C@H](N=[N+]=[N-])[C@@H](CO)O2)c(=O)[nH]c1=O [ZIDOVUDINE] | – | 1870 µM | 0.34 µM | –

Source: ChEMBL document CHEMBL1140562, “Anti-AIDS agents 73: structure-activity relationship study and asymmetric synthesis of 3-O-monomethylsuccinyl-betulinic acid derivatives” (Bioorg Med Chem Lett, 2007)
